# Measurements taken from US20240246954A1, “COMPOSITIONS AND METHODS FOR INHIBITING KRAS” (TheRas, Inc., priority 2021, published 2024).
# Experiments:
# [1] = target: T1, Avi-KRAS G12D (1-169) GppNHp/RAF1 RBD-3×FLAG (52-151) (Homo sapiens, UniProt P01116, G12D); assay: HTRF Raf1-KRAS G12D-GppNHp disruption assay; format: biochemical; conditions: 1 h incubation
# T1 construct: Avi-KRAS G12D (1-169) GppNHp
# Summary of the method: (§1)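 HTRF read-out (320 nm excitation, 615 nm emission) after two 1 h room-temperature incubations, first with protein mix, then detection reagents. Ten-point dilution series starting at 100 μM; results given as % activity relative to DMSO at 100%.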
# [2] = target: T2, Avi-KRAS G12D/Q25A (1-169) GppNHp/3×FLAG-PI3KCA (157-299) (Homo sapiens, UniProt P01116, G12D/Q25A); assay: HTRF PI3KCA-KRAS G12D/Q25A-GppNHp disruption assay; format: biochemical; conditions: 1 h incubation
# T2 construct: Avi-KRAS G12D/Q25A (1-169) GppNHp
# T2 sequence (P01116 1-169 isoform P01116-2 G12D/Q25A limits assumed): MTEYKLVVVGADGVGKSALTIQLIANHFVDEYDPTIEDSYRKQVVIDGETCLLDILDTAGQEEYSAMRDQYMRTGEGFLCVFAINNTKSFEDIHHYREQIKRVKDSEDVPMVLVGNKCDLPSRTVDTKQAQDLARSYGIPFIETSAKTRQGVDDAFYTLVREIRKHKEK
# Summary of the method: as §1
# [3] = test system: pERK in GP2d cells (KRAS G12D); assay: Cell-based pERK HTRF assay; conditions: GP2d, 1 h, 60 min incubation
# Protocol: Biological Example 3. Cell-Based pERK HTRF Assay
# pERK assay (Perkin Elmer) was used to determine the effectiveness of compounds in disrupting KRAS G12D protein/effector signaling in cells.
# On Day 1, cells (GP2d) were seeded into 96-well plates at 3×10^4 cells/well in 80 μl complete growth media (DMEM, 10% FBS).
# On Day 2, cells were treated with compounds at 0.25% DMSO. The source plate was created with compounds diluted in media at 5-fold the final assay concentration. The compounds were run in a 9-point concentration curve starting at 1 μM, with a half-log dilution between concentrations. 20 μL was transferred onto the cell plates (final volume in wells was 100 μL). Plates were harvested after 60 min incubation by aspirating media and adding kit-supplied 1× supplemented lysis buffer to all wells (50 μl per well). Plates were then placed on a plate shaker and incubated at 850 rpm for an additional 30 min.
# Antibody mixture solution is prepared by diluting aliquoted d2 and Eu Cryptate antibodies 1:20 in kit supplied detection buffer, mix the diluted antibodies solutions (1:1 v:v). Four μL of this solution is then added to a 384-well detection plate (Perkin Elmer; 6008230).
# Samples were homogenized by pipetting up and down and then transferred (16 μL of cell lysates) from the 96-well cell culture plate to two wells of the HTRF 384-well detection plate containing the antibody solution. Plates were centrifuged (524 g for 1 min) and allowed to incubate between 4 and 24 h at room temperature. Maximum signal is reached after 4 h incubation time and remains stable over a period of 24 hours. Therefore, readings can be made between 4 and 24 h of incubation. Plates were centrifuged again (524 g for 1 min), then analyzed on the EnVision plate reader using the following settings: Excitation 320 nm, Bandwidth 75 nm; Emission 615 nm, Bandwidth 85 nm; Gain 100%; Flashes 100; Lag 60 μs.
# T1 sequence (P01116 1-169 isoform P01116-2 G12D limits assumed): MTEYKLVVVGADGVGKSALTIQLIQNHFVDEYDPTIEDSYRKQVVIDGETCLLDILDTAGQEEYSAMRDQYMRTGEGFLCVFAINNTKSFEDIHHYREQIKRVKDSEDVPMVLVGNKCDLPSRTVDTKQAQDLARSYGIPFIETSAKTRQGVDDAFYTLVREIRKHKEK
Compound,IC50 [1],IC50 [2],IC50 [3]
Fc1c(-c2cc(C(F)F)cc3ccccc23)c(C(F)(F)F)cc2c(N3CC4CCC(C3)N4)nc(OCC34CCCN3CCC4)nc12 [Compound 331],10000 to 30000 nM,10000 to 30000 nM,> 1000 nM
Nc1nc2c(-c3c(C(F)(F)F)cc4c(N5CCC[C@H]6NCC[C@H]65)nc(OCC56CCCN5CCC6)nc4c3F)ccc(F)c2s1 [Compound 332],100 to 1000 nM,1000 to 10000 nM,100 to 1000 nM
Nc1nc2c(-c3c(C(F)(F)F)cc4c(N5CC[C@@H]6NCC[C@@H]65)nc(OCC56CCCN5CCC6)nc4c3F)ccc(F)c2s1 [Compound 333],1000 to 10000 nM,1000 to 10000 nM,> 1000 nM
Nc1nc2c(-c3c(C(F)(F)F)cc4c(N[C@@H]5CCC6(CNC6)C5)nc(OCC56CCCN5CCC6)nc4c3F)ccc(F)c2s1 [Compound 334],1000 to 10000 nM,1000 to 10000 nM,> 1000 nM
Nc1nc2c(-c3c(C(F)(F)F)cc4c(N[C@H]5CCC6(CNC6)C5)nc(OCC56CCCN5CCC6)nc4c3F)ccc(F)c2s1 [Compound 335],100 to 1000 nM,100 to 1000 nM,> 1000 nM
C[C@@H]1C[C@@H](N(C)c2nc(OC[C@@]34CCCN3C[C@H](F)C4)nc3cc(-c4ccc(F)c5sc(N)nc45)c(C(F)(F)F)cc23)CN1 [Compound 336],100 to 1000 nM,1000 to 10000 nM,100 to 1000 nM
N#Cc1c(N)sc2c(F)ccc(-c3c(C(F)(F)F)cc4c(N5CC6CCC(C5)N6)nc(OCC5(CN6CCOCC6)CC5)nc4c3F)c12 [Compound 337],≤ 100 nM,100 to 1000 nM,≤ 100 nM
Fc1c(-c2ccc(F)c3sc(C(F)F)nc23)c(C(F)(F)F)cc2c(N3CC4CCC(C3)N4)nc(OC[C@@]34CCCN3C[C@H](F)C4)nc12 [Compound 339],10000 to 30000 nM,10000 to 30000 nM,> 1000 nM
CN1CCC(Oc2nc(N3CC4CCC(C3)N4)c3cc(C(F)(F)F)c(-c4ccc(F)c5sc(N)nc45)c(F)c3n2)CC1 [Compound 340],1000 to 10000 nM,1000 to 10000 nM,100 to 1000 nM
N#Cc1c(O)cccc1-c1c(C(F)(F)F)cc2c(N3CC4CCC(C3)N4)nc(OCC34CCCN3CCC4)nc2c1F [Compound 341],10000 to 30000 nM,10000 to 30000 nM,> 1000 nM
N#Cc1c(N)cccc1-c1c(C(F)(F)F)cc2c(N3CC4CCC(C3)N4)nc(OCC34CCCN3CCC4)nc2c1F [Compound 342],10000 to 30000 nM,10000 to 30000 nM,> 1000 nM
"Nc1nc2c(-c3c(C(F)(F)F)cc4c(N5C[C@H]6CC[C@@H](C5)N6)nc(OC[C@@]56CCCN5C[C@H](F)C6)nc4c3O)ccc(F)c2s1 [Compound 343, 7-(2-amino-7-fluorobenzo[d]thiazol-4-yl)-4-((1R,5S)-3,8-diazabicyclo[3.2.1]octan-3-yl)-2-(((2R,7aS)-2-fluorotetrahydro-1H-pyrrolizin-7a(5H)-yl)methoxy)-6-(trifluoromethyl)quinazolin-8-ol]",10000 to 30000 nM,10000 to 30000 nM,> 1000 nM
CN(c1nc(OC[C@@]23CCCN2C[C@H](F)C3)nc2c(F)c(-c3ccc(F)c4sc(N)c(C#N)c34)ccc12)[C@@H]1CCNC1 [Compound 344],100 to 1000 nM,100 to 1000 nM,100 to 1000 nM
"CN(c1nc(OC[C@@]23CCCN2C[C@H](F)C3)nc2c(F)c(-c3ccc(F)c4sc(N)c(C#N)c34)c(C#N)cc12)[C@@H]1CCNC1 [Compound 345, 7-(2-amino-3-cyano-7-fluorobenzo[b]thiophen-4-yl)-8-fluoro-2-(((2R,7aS)-2-fluorotetrahydro-1H-pyrrolizin-7a(5H)-yl)methoxy)-4-(methyl((R)-pyrrolidin-3-yl)amino)quinazoline-6-carbonitrile]",100 to 1000 nM,100 to 1000 nM,100 to 1000 nM
Nc1c(F)c(F)c(F)c(-c2c(C(F)(F)F)cc3c(N4CC5CCC(C4)N5)nc(OCC45CCCN4CCC5)nc3c2F)c1Cl [Compound 346],10000 to 30000 nM,10000 to 30000 nM,> 1000 nM
CN(c1nc(OC[C@@]23CCCN2C[C@H](F)C3)nc2cc(-c3ccc(F)c4sc(N)c(C#N)c34)c(C(F)(F)F)cc12)[C@H]1CNC[C@H]1F [Compound 347],100 to 1000 nM,100 to 1000 nM,≤ 100 nM
Nc1nc2c(-c3c(C(F)(F)F)cc4c(N5CC[C@H]6CCNC[C@H]65)nc(OCC56CCCN5CCC6)nc4c3F)ccc(F)c2s1 [Compound 348],1000 to 10000 nM,1000 to 10000 nM,> 1000 nM
Nc1nc2c(-c3c(C(F)(F)F)cc4c(N5CC[C@@H]6CCNC[C@@H]65)nc(OCC56CCCN5CCC6)nc4c3F)ccc(F)c2s1 [Compound 349],1000 to 10000 nM,1000 to 10000 nM,> 1000 nM
Nc1nc2c(-c3c(C(F)(F)F)cc4c(N5CC[C@@H]6CNC[C@@H]65)nc(OC[C@@]56CCCN5C[C@H](F)C6)nc4c3F)ccc(F)c2s1 [Compound 351],100 to 1000 nM,100 to 1000 nM,100 to 1000 nM
Nc1nc2c(-c3c(C(F)(F)F)cc4c(N5CC[C@H]6CNC[C@H]65)nc(OC[C@@]56CCCN5C[C@H](F)C6)nc4c3F)ccc(F)c2s1 [Compound 352],1000 to 10000 nM,1000 to 10000 nM,100 to 1000 nM
CN(c1nc(OC[C@@]23CCCN2C[C@H](F)C3)nc2c(F)c(-c3ccc(F)c4sc(N)c(C#N)c34)c(C(F)(F)F)cc12)[C@H]1CNC[C@H]1F [Compound 353],100 to 1000 nM,100 to 1000 nM,≤ 100 nM
CN(c1nc(OC[C@@]23CCCN2C[C@H](F)C3)nc2cc(-c3ccc(F)c4sc(N)nc34)c(C(F)(F)F)cc12)[C@H]1CNC[C@H]1F [Compound 354],100 to 1000 nM,100 to 1000 nM,100 to 1000 nM
CN(c1nc(OC[C@@]23CCCN2C[C@H](F)C3)nc2c(F)c(-c3ccc(F)c4sc(N)c(C#N)c34)c(C(F)(F)F)cc12)[C@H]1CNC[C@@H]1F [Compound 355],100 to 1000 nM,1000 to 10000 nM,≤ 100 nM
CN(c1nc(OC[C@@]23CCCN2C[C@H](F)C3)nc2cc(-c3ccc(F)c4sc(N)c(C#N)c34)c(C(F)(F)F)cc12)[C@H]1CNC[C@@H]1F [Compound 356],1000 to 10000 nM,1000 to 10000 nM,100 to 1000 nM
C[C@@H]1C[C@@H](N(C)c2nc(OC[C@@]34CCCN3C[C@H](F)C4)nc3c(F)c(-c4ccc(F)c5sc(N)c(C#N)c45)ccc23)CN1 [Compound 357],1000 to 10000 nM,1000 to 10000 nM,100 to 1000 nM
N#Cc1c(N)sc2c(F)ccc(-c3ccc4c(N5CC6CCC(C5)N6)nc(OC[C@@]56CCCN5C[C@H](F)C6)nc4c3F)c12 [Compound 358],100 to 1000 nM,1000 to 10000 nM,≤ 100 nM
"N#Cc1cc2c(N3C[C@H]4CC[C@@H](C3)N4)nc(OC[C@@]34CCCN3C[C@H](F)C4)nc2c(F)c1-c1ccc(F)c2sc(N)c(C#N)c12 [Compound 359, 7-(2-amino-3-cyano-7-fluorobenzo[b]thiophen-4-yl)-4-((1R,5S)-3,8-diazabicyclo[3.2.1]octan-3-yl)-8-fluoro-2-(((2R,7aS)-2-fluorotetrahydro-1H-pyrrolizin-7a(5H)-yl)methoxy)quinazoline-6-carbonitrile]",100 to 1000 nM,100 to 1000 nM,≤ 100 nM
CN(c1nc(OC[C@@]23CCCN2C[C@H](F)C3)nc2c(F)c(-c3ccc(F)c4sc(N)c(C#N)c34)c(C(F)(F)F)cc12)[C@]1(C)CCNC1 [Compound 360],≤ 100 nM,100 to 1000 nM,≤ 100 nM
